Three compounds from EPA's ToxRefDB 2 can be followed below.

Some results are limits rather than exact numbers.

Broadly, the LOAEL is the lowest dose or exposure tested at which an adverse effect was seen. As a reminder, the NOAEL is the highest dose or exposure tested at which no adverse effect was seen.

The subject of series [1] is rat. As to conditions: Multigenerational reproductive toxicity study, wistar, Oral, Gavage/Intubation, dose end: 2 generation.
A further series has as its system rabbit. The note with it: Prenatal developmental toxicity study, himalayan, Oral, Gavage/Intubation, dose end: 18 GD.
For series [2], the system named is rat. As to conditions: Prenatal developmental toxicity study, wistar, Oral, Gavage/Intubation, dose end: 19 GD.
In series [3] the test system is rat. As to conditions: Prenatal developmental toxicity study, wistar, Oral, Gavage/Intubation, dose end: 20 GD.
In series [4] the test system is rat. The note with it: Prenatal developmental toxicity study; wistar; Dermal; Topical; dose end: 15 GD; group: developmental; developmental / developmental malformation / bone / supernumerary.
For a further series, the system named is mouse. As to conditions: Developmental neurotoxicity study; cd1; Injection; Subcutaneous; dose end: 42 PND; group: cannot be grouped; systemic / in life observation / body weight / offspring (pup) weight.
A further series has as its system dog. The note with it: Sub-acute repeat dose toxicity, beagle, Oral, Gavage/Intubation, dose end: 4 week, group: systemic.
In series [5] the test system is rat. The note with it: Sub-acute repeat dose toxicity, sprague dawley, Oral, Gavage/Intubation, dose end: 1 month, group: systemic.
Where [6] appears, read: group: offspring, systemic / in life observation / body weight / offspring (pup) weight + systemic / organ weight / spleen / absolute + systemic / organ ….
Where [7] appears, read: group: parental, systemic / organ weight / liver / absolute + systemic / organ weight / thymus / absolute + systemic / organ weight / thymus / relative to ….
The mark [8] stands for this setting: group: reproductive, reproductive / reproductive performance / estrous cycle / length + reproductive / reproductive performance / estrous cycle / periodicity + ….
Where [9] appears, read: group: developmental, developmental / developmental malformation / bone / arthrogryposis + developmental / developmental malformation / bone / malformation, total.
The mark [10] stands for this setting: group: maternal, reproductive / reproductive performance / resorptions / resorptions + systemic / in life observation / body weight / body weight gain + ….
Where [11] appears, read: group: developmental, developmental / developmental malformation / bone / delayed ossification + developmental / developmental malformation / bone / supernumerary….
The mark [12] stands for this setting: group: maternal, systemic / in life observation / body weight / body weight gain + systemic / in life observation / food consumption / food consumption.
The mark [13] stands for this setting: group: maternal, systemic / in life observation / body weight / body weight gain + systemic / in life observation / food consumption / food consumption + ….
The mark [14] stands for this setting: group: developmental, developmental / developmental malformation / bone / supernumerary.
Setting [15] is: group: maternal, systemic / in life observation / clinical signs / abnormal respiratory sounds + systemic / in life observation / clinical signs / altered ….
[16] abbreviates: systemic / clinical chemistry / alanine aminotransferase (alt/sgpt) / alanine aminotransferase (alt/sgpt) + systemic / hematology / blood ….
The mark [17] stands for this setting: systemic / in life observation / body weight / body weight gain + systemic / in life observation / food consumption / food consumption.
The mark [18] stands for this setting: systemic / in life observation / body weight / body weight gain + systemic / in life observation / food consumption / food consumption + ….

Regarding `OC(Cc1ccccc1Cl)(Cn1[nH]cnc1=S)C1(Cl)CC1` (configuration not stated) [Prothioconazole], the LEL in the series on rat [1] (setting [6]) stood at 750 mg/kg/day; with rat [1] (group: parental, systemic / organ weight / thymus / absolute + systemic / organ weight / thymus / relative to body weight + systemic / organ weight / seminal…), 100 mg/kg/day; in the series with rat [1] (setting [8]), 750 mg/kg/day; in the series on rabbit (setting [9]) it was 10 mg/kg/day; with rabbit (setting [10]), 50 mg/kg/day; with rat [2] (setting [11]), 1000 mg/kg/day. Moreover, the LEL with rat [2] (setting [12]) was determined as 200 mg/kg/day; in the series with rat [3] (setting [14]) it was 30 mg/kg/day; in the series with rat [3] (setting [15]), 750 mg/kg/day; in the series on rat [4], 100 mg/kg/day. Moreover, the LOAEL is 750 mg/kg/day with rat [1] (setting [6]); 750 mg/kg/day in the series with rat [1] (setting [7]); 750 mg/kg/day in the series on rat [1] (setting [8]); 10 mg/kg/day in the series on rabbit (setting [9]); 50 mg/kg/day in the series with rabbit (setting [10]); above 1000 mg/kg/day with rat [2] (setting [11]). Also, the LOAEL with rat [2] (setting [12]) was found to be 200 mg/kg/day; with rat [3] (setting [14]) it was 30 mg/kg/day; in the series on rat [3] (setting [15]), 750 mg/kg/day; in the series with rat [4], 100 mg/kg/day. In addition, the NEL worked out at 100 mg/kg/day in the series with rat [1] (setting [6]); 10 mg/kg/day in the series with rat [1] (setting [7]); 100 mg/kg/day in the series with rat [1] (setting [8]); 2 mg/kg/day in the series on rabbit (setting [9]); 10 mg/kg/day in the series with rabbit (setting [10]); 200 mg/kg/day in the series on rat [2] (setting [11]). Besides, the NEL in the series on rat [2] (setting [13]) was 40 mg/kg/day; in the series with rat [3] (setting [14]) it was below 30 mg/kg/day; with rat [3] (setting [15]), 150 mg/kg/day; in the series with rat [4] it was below 100 mg/kg/day. Also, the NOAEL is 100 mg/kg/day in the series with rat [1] (setting [6]); 100 mg/kg/day in the series with rat [1] (setting [7]); 100 mg/kg/day in the series with rat [1] (setting [8]); 2 mg/kg/day in the series on rabbit (setting [9]); 10 mg/kg/day with rabbit (setting [10]); at least 1000 mg/kg/day in the series on rat [2] (setting [11]). Moreover, the NOAEL was 40 mg/kg/day in the series on rat [2] (setting [13]), below 30 mg/kg/day with rat [3] (setting [14]), 150 mg/kg/day in the series with rat [3] (setting [15]) and below 100 mg/kg/day in the series on rat [4].

Regarding `O=P1(N(CCCl)CCCl)NCCCO1` (configuration not stated) [Cyclophosphamide], in the series on mouse, the LEL worked out at 20 mg/kg/day, the LOAEL is above 45 mg/kg/day, the NEL was below 20 mg/kg/day and the NOAEL was at least 45 mg/kg/day.

As for `CC(=O)O.COCCOc1cc2cc(C(=O)NC3CCN(C(C)C)CC3)n(CC(=O)Nc3ccc(Cl)cn3)c2cn1`, in the series on dog (setting [16]), the LOAEL was found to be 75 mg/kg/day, the NEL stood at 3 mg/kg/day and the NOAEL is 15 mg/kg/day. In addition, the LEL with dog (systemic / organ weight / liver / absolute + systemic / organ weight / liver / relative to body weight) was 15 mg/kg/day. Also, in the series on rat [5] (setting [17]), the LEL came out at 10 mg/kg/day and the NEL is below 10 mg/kg/day. Besides, in the series with rat [5] (setting [18]), the LOAEL was 30 mg/kg/day and the NOAEL is 10 mg/kg/day.
